Each block holds one molecule with its values, some of them ahead of it.
Key:
FAF1-Caspase 8 complex = molecular target: T1, FAF1-Caspase 8 complex (Homo sapiens, UniProt Q9UNN5); assay: Immunoprecipitation assay of FAF1-Caspase 8 complex formation; assay type: biochemical
T1 construct: host or cells: cell extracts
T1 sequence (Q9UNN5 1-650): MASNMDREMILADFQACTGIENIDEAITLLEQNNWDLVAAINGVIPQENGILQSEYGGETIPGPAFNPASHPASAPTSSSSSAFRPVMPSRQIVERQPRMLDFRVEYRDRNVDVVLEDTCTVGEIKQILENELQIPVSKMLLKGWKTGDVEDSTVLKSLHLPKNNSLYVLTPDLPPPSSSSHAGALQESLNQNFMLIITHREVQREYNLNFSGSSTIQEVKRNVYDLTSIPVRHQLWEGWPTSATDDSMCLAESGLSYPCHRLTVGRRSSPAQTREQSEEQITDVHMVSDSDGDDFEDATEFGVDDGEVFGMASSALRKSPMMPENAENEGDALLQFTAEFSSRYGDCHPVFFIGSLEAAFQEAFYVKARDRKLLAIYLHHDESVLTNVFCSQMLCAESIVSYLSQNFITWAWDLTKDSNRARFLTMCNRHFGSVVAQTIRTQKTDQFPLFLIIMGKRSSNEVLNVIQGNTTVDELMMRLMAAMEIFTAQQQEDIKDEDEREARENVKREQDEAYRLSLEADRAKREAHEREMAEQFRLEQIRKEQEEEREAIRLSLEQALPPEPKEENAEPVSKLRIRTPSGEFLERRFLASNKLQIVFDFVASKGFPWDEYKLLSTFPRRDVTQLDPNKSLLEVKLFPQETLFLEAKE
From the text: (§1) FAF1 activates apoptotic stress by various stimuli through activation of caspase cascade and necrosis as described (Yu C et al. 2016). The direct targets of FAF1 are caspase 8 and JNK in these two pathways, respectively. And the step of this activation is forming these complexes followed by activation of the downstream targets.
(§2) The inhibition of the complex formation of FAF1-Caspase 8 and FAF1-JNK by KM-819 is confirmed by the usual immunoprecipitation assays using a caspase8 DED antibody and a JNK antibody, and bound and precipitated FAF1 are measured by Western blot using anti-FAF1 antibody. Clearly, KM-819 inhibits the complex formation effectively, about 80% inhibition at 0.1 uM (FIG. 8).

FAF1-JNK complex = molecular target: T2, FAF1-JNK complex (Homo sapiens, UniProt Q9UNN5); assay: Immunoprecipitation assay of FAF1-JNK complex formation; assay type: biochemical
T2 construct: host or cells: cell extracts
T2 sequence (Q9UNN5 1-650): T1 sequence (Q9UNN5 1-650)
From the text: as §1, §2

Caspase 8 = Caspase 8 activation measured as Caspase 3 cleavage, Western blot; assay type: cell-based; details: cleavage of Caspase 3
Description: (§3) The inhibition of activation of Caspase 8 and JNK by KM-819 is confirmed by assaying the cleavage of the Caspase 8 substrate, Caspase 3, and autophosphorylation of JNK, respectively (FIG. 9). The cells are treated with different concentration of KM-819 as indicated and the levels of cleaved Caspase 3 and autophosphorylated form of JNK are measured by Western blot using anti-Caspase 3 antibody and anti-phospho-JNK antibody, respectively. Clearly, KM-819 inhibits the activity of Caspase 8 and JNK activation (FIG. 9).

JNK = JNK activation measured as JNK autophosphorylation, Western blot; assay type: cell-based; details: autophosphorylation of JNK
Description: as §3

LC3 and p62 = assay: Autophagy promotion: LC3 and p62 levels in SH-SY5Y cells overexpressing FAF1, Western blot; assay type: cell-based
Description: EC50 for autophagy promotion of KM-819 is 1 nM.

alpha-synuclein = assay: Alpha-synuclein level in SH-SY5Y cells co-transfected with FAF1-Flag and alpha-synuclein-GFP, Western blot; assay type: cell-based
Description: To confirm if FAF1 inhibitor decreases the alpha-synuclein level in cells, SH-SY5Y cells are treated with the FAF1 inhibitor KM-819 (KR-88493, U.S. Pat. No. 7,939,550, Yoo S E et al. 2016). Cells are co-transfected with genes encoding FAF1 tagged with Flag and alpha-synuclein tagged with GFP. The alpha-synuclein level is measured by Western blot of cell extracts using anti-GFP antibody. The FAF1 level is measured by Western blot of cell extracts using anti-Flag antibody. Clearly, the level of alpha-synuclein is decreased upon treatment with FAF1 inhibitor (FIG. 11). […] This is much higher efficacy compared to the apoptosis inhibition activity measured in the prior art, 70% inhibition at 10 uM. Note that FAF1 level itself is not changed by treatment with FAF1 inhibitor.

[1] = system: human alpha-synuclein mutant A53T; assay: Alpha-synuclein level in brain tissues of alpha-synuclein A53T transgenic mice after oral KM-819, Western blot; assay type: in vivo; details: oral 1, 5, 10 mg/kg/day for 9 days, A53T Tg mice
[2] = system: deoxy-glucose induced hypoxia-mediated apoptosis; details: at 10 uM; U.S. Pat. No. 7,939,550; cited from earlier work
FAF1 = FAF1 siRNA treatment of SH-SY5Y cells cotransfected with the alpha-synuclein gene, Western blot; assay type: cell-based
From the text: FAF1 expression is attenuated by treating SH-SY5Y cells with siRNA (sequence: GUGUUGUGGCACAAACCAU) and reduction in FAF level is confirmed by Western blot of cell extracts using anti-FAF1 antibody. The cells are cotransfected with the alpha-synuclein gene. The level of alpha-synuclein is monitored by Western blot using anti-alpha-synuclein antibody. Clearly, the level of alpha-synuclein is decreased with FAF1 siRNA treatment (FIG. 5).

- inhibition at 0.1 µM (FAF1-Caspase 8 complex): ~80%
- inhibition at 0.1 µM (FAF1-JNK complex): ~80%
- IC50 (Caspase 8): 730 nM
- IC50 (JNK): 250 nM
- EC50 (LC3 and p62; Homo sapiens, read-out: EC50 for autophagy promotion (modulating LC-3 and p62 levels)): 1 nM
- EC50 (alpha-synuclein; Homo sapiens, SH-SY5Y, as stated in description b51, read-out: EC50 for decreasing the amount of alpha-synuclein in cells): 20 nM
- IC50 (alpha-synuclein; Homo sapiens, SH-SY5Y cells, FAF1-Flag and alpha-synuclein-GFP, read-out: IC50 for decrease of alpha-synuclein level): 20 nM
Molecule: O=C(CSc1ccc(Br)cc1)Nc1cn(CCc2ccccc2)nc1C(=O)O [KM-819, 4-[2-(4-bromo-phenylsulfanyl)-acetylamino]-1-phenethyl-1H-pyrazole-3-carboxylic acid]
- LC3 level (LC3 and p62): increases
- p62 protein level (LC3 and p62): decreases
- inhibition at 10 µM (alpha-synuclein; Homo sapiens, SH-SY5Y, at 10 uM): > 95%
- FAF1 level (alpha-synuclein; SH-SY5Y cells, anti-Flag Western blot): not changed
- FAF1 level in midbrain [1]: not changed
- level of S129 phosphorylated alpha-synuclein in midbrain [1]: decreased
- level of alpha-synuclein in cerebellum [1]: decreased
- level of alpha-synuclein in cortex [1]: decreased
- level of alpha-synuclein in hippocampus [1]: decreased
- level of alpha-synuclein in midbrain [1]: decreased
- level of alpha-synuclein in striatum [1]: decreased
- inhibition of apoptosis [2]: 70%

Molecule: FAF1 siRNA: siRNA (sequence: GUGUUGUGGCACAAACCAU) that attenuates FAF1 expression in SH-SY5Y cells (chemistry not given here)
- level of alpha-synuclein (FAF1; SH-SY5Y cells cotransfected with alpha-synuclein gene): decreased
- FAF1 expression (FAF1; SH-SY5Y cells, anti-FAF1 Western blot): attenuated

Source: patent publication US12521371B2, “Modulators of alpha-synuclein” (KAINOS MEDICINE INC., priority 2017, dated 2026)
